Measured values reported in US9314019B2, “Snout beetle attractant” (priority 2011, dated 2016).

System: snout beetles
Experiment: Field test of individual odorants in yellow Delta traps
Type: in vivo, Eremnus setulosus and/or Phlyctinus calosus
Conditions: for Numbers of snout beetles caught in yellow Delta traps, Mean: mean of six replications, traps collected after one week; for Numbers of snout beetles caught in yellow Delta traps, Rep. 1: replication 1; for Numbers of snout beetles caught in yellow Delta traps, Rep. 1 / Numbers of snout beetles caught in yellow Delta traps, Rep. 2 / Numbers of snout beetles caught in yellow Delta traps, Rep. 3 / Numbers of snout beetles caught in yellow Delta traps, Rep. 4 / Numbers of snout beetles caught in yellow Delta traps, Rep. 5 / Numbers of snout beetles caught in yellow Delta traps, Rep. 6: traps at ground level against apple tree trunks, collected after one week; for Numbers of snout beetles caught in yellow Delta traps, Rep. 2: replication 2; for Numbers of snout beetles caught in yellow Delta traps, Rep. 3: replication 3; for Numbers of snout beetles caught in yellow Delta traps, Rep. 4: replication 4; for Numbers of snout beetles caught in yellow Delta traps, Rep. 5: replication 5; for Numbers of snout beetles caught in yellow Delta traps, Rep. 6: replication 6
Excerpt: Yellow Delta traps fitted with bottom sticky pads upon which odorant dispensers of the various test odorants were applied, were placed on ground level against the trunks of bearing apple trees in the Koue Bokkeveld area in the Western Cape Province, South Africa. Test orchards infested with snout beetles were selected on the farms Dennekruin and Voorsorg in the Ceres-Koue-Bokkeveld area.
Unloaded or “blank” traps with no odorants, but identical to the other traps in all other respects, were used as a control. There are no attractants registered for use on snout beetles on deciduous fruit in South Africa with which to compare the experimental results.
After one week the traps were collected and the snout beetles caught were counted and noted. Six replications were used per odorant tested. In Table 1 below the summarised results of the experiments are presented.

Row | SMILES | Numbers of snout beetles caught in yellow Delta traps, Mean | Numbers of snout beetles caught in yellow Delta traps, Rep. 1 | Numbers of snout beetles caught in yellow Delta traps, Rep. 2 | Numbers of snout beetles caught in yellow Delta traps, Rep. 3 | Numbers of snout beetles caught in yellow Delta traps, Rep. 4 | Numbers of snout beetles caught in yellow Delta traps, Rep. 5 | Numbers of snout beetles caught in yellow Delta traps, Rep. 6
1 | O=C(O)C1CC1 [Cyclopropane carboxylic acid] | 7.8 | 6 | 7 | 5 | 7 | 3 | 19
2 | COc1cccc(C(C)=O)c1 [3-Methoxy acetophenone] | 2.5 | 3 | 1 | 6 | 2 | 1 | 2
3 | COC1=C(C)OC(C)C1=O (centres unmarked) [2,5-Dimethyl-4-methoxy-3(2H)-furanone] | 3.5 | 2 | 4 | 3 | 2 | 3 | 7
4 | COc1ccccc1 [Anisole] | 2.7 | 4 | 1 | 3 | 3 | 2 | 3
5 | CC(=O)CCC(C)C [5-Methyl-2-hexanone] | 2.7 | 4 | 1 | 1 | 5 | 3 | 2
